Measurements from paper PMC11456799 (Molecular Therapy. Nucleic Acids, 2024).
pIC50: −log10 of the molar value.

Key:
WA-1/2020 SARS-CoV-2 = system: WA-1/2020 SARS-CoV-2; design: species or system K18-hACE2 mice; conditions: mouse, in vivo, po, 150 mg/kg
[1] = system: SARS-CoV-2 Delta (B.1.617.2); experiment: In vitro antiviral assay in HeLa-ACE2 cells; assay type: cell-based; conditions: Severe acute respiratory syndrome coronavirus 2, HeLa-ACE2
SARS-CoV-2 Omicron BA.1 = experiment: In vitro antiviral assay in HeLa-ACE2 cells; assay type: cell-based; conditions: Severe acute respiratory syndrome coronavirus 2, HeLa-ACE2
[2] = system: SARS-CoV-2 Omicron XBB1.5; experiment: In vitro antiviral assay in HeLa-ACE2 cells; assay type: cell-based; conditions: Severe acute respiratory syndrome coronavirus 2, HeLa-ACE2
HeLa-ACE2 cells = conditions: human
SARS-CoV-2 Omicron JN.1 = experiment: In vitro antiviral assay in HeLa-ACE2 cells; assay type: cell-based; conditions: Severe acute respiratory syndrome coronavirus 2, HeLa-ACE2
SARS-CoV-2 Omicron BA.5 = experiment: In vitro antiviral assay in HeLa-ACE2 cells; assay type: cell-based; conditions: Severe acute respiratory syndrome coronavirus 2, HeLa-ACE2
in vitro = conditions: human
SARS-CoV-2 WA-1/2020 = experiment: In vitro antiviral assay in HeLa-ACE2 cells; assay type: cell-based; conditions: Severe acute respiratory syndrome coronavirus 2, HeLa-ACE2

SMILES	lung virus titer lowering (positive control) (WA-1/2020 SARS-CoV-2)	pIC50 [1]	IC90 [1] [nM]	pIC50 (SARS-CoV-2 Omicron BA.1)	IC90 (SARS-CoV-2 Omicron BA.1) [nM]	pIC50 [2]	IC90 [2] [nM]	CC50 (HeLa-ACE2 cells) [nM]	pIC50 (SARS-CoV-2 Omicron JN.1)	IC90 (SARS-CoV-2 Omicron JN.1) [nM]	pIC50 (SARS-CoV-2 Omicron BA.5)	IC90 (SARS-CoV-2 Omicron BA.5) [nM]	CC50 (in vitro) [nM]	pIC50 (SARS-CoV-2 WA-1/2020)	IC90 (SARS-CoV-2 WA-1/2020) [nM]
CC(C)C(=O)OC[C@H]1O[C@@H](n2ccc(NO)nc2=O)[C@H](O)[C@@H]1O [MK-4482, molnupiravir]	approximately 3 log10 ffu/g tissue														
CC(C)(C)[C@H](NC(=O)C(F)(F)F)C(=O)N1C[C@H]2[C@@H]([C@H]1C(=O)N[C@H](C#N)C[C@@H]1CCNC1=O)C2(C)C [Nirmatrelvir, nirmatrelvir]		7.40	170	7.52	80	7.70	50	> 5000	7.22	150	7.30	140	> 5000	6.96	210
